In brackets after ≈: the same amount, converted by molar mass. Like-named read-outs stand apart in the source and are kept apart here.
What was measured:
physchem = assay type: physicochemical
Procedure: (§1) The retention time was 5.2 min. Other compounds were assayed spectrophotometrically.

[1] = Preparation of solid freeze-dried HPCD complexes: degree of incorporation; assay type: physicochemical
Procedure: An excess of E2-CDS was added and the solution then was purged with helium. The resulting suspension was then sonicated for 30 minutes, filtered through a glass filter (ASTM 10-15M, Pyrex No. 36060) and freeze-dried overnight. Best results were obtained by hard-freezing the aqueous solution of the E2-CDS/HPCD complex for at least 10 hours before lyophilization. The degree of complex formation was determined by dissolving a small amount of the dry complex in methanol and then analyzing by high pressure liquid chromatography (HPLC).
An excess of E2-CDS or other CDS was added to a 50% w/w solution of HPCD. The suspension was sonicated for 30 minutes, filtered through 0.45 µm PVDF membranes and freeze-dried. The degree of incorporation was determined either spectrophotometrically or by HPLC. In some cases, the effect of solubilizing agents on the degree of incorporation was examined. This involved adding small amounts of polyoxyethylene 20 cetyl ether (Brij), polyoxyethylene sorbitan monooleate (Tween 80) or ethanol to the aqueous solution prior to lyophilization.
as §1
The solution was degassed and the suspension was sonicated for 30 minutes, after which it was filtered and the filtrate was lyophilized. The dried filtrate contained 65.6 mg testosterone propionate or 29.6 mg T-CDS1 per gram of cyclodextrin complex. Compounds were analyzed for decomposition by thin-layer chromatography and ultraviolet absorption.

[2] = Maximum concentrations of selected CDS in varying concentrations of selected cyclodextrins; assay type: physicochemical
Procedure: In further testing, maximum concentrations of selected CDS in varying concentrations of selected cyclodextrins were determined. The concentration of E2-CDS (mg/mL) was as follows: […]

[3] = Lung and brain concentrations in male rats after i.v. E2-CDS in DMSO or as HPCD complex (HPLC with pre-column enrichment); assay type: in vivo, Sprague-Dawley rats
Text: The loss of sensitivity resulting from the dilution step in the procedure optimal for pretreatment of biological samples (see sample preparation without extraction) could be compensated for by developing an HPLC system that allows injection of large volumes. A suitable HPLC-method which has been described in the literature [Roth et al, J. Chromatogr. 222: 13-22 (1981)] is based on alternating pre-column sample enrichment. The procedure used herein was as follows: The sample containing the drug is injected with a first pump A, delivering pure water, onto one of two pre-columns, which are alternatingly connected with the injection system by two pneumatically driven valves. Provided a certain lipophilicity, the drug is retained and concentrated on the pre-column, while accompanying water soluble-co-products like proteins are being washed out as long as water is pumped through the pre-column. This allows the direct injection of body fluids. After a certain enrichment time (6 and 8 minutes), simultaneous rotation of the two valves is induced, causing pre-column 1, where the injected drug has been absorbed, to be switched to the solvent stream of the second pump, B. Also, at this point, the recording integrator is started. Pump B delivers the mobile phase, necessary for separation and chromatography, and backflushes the sample from pre-column 1 onto the analytical column. Parallel to this process, pre-column 2 is switched to the water stream of pump A so that a sample can be injected and enriched while the previous one is being eluted (alternating mode). Volumes up to 1800 µL can be injected due to the concentration effect of the enrichment phase.
This system was applicable to the quantification of E2, E2-CDS and E2-Quat. The mobile phase for E2-CDS was: Acetonitrile/water 80:20 at a flow rate of 1.8 mL/minute. Optimal peak shape and retention time for E2 and E2-Ouat were obtained with pump B delivering a mixture of acetonitrile/water 42:58 which contained 0.025 M/L sodium salt of 1-octanesulfonic acid and 0.003 M/L tetrabutylammonium phosphate. […]

[4] = 37°C
[5] = 15 mg/kg in DMSO relative to 5 mg/kg as complex with HPCD in water, i.v., within the first hour

**Q.** Which results are given for CN1C=CCC(C(=O)O[C@H]2CC[C@H]3[C@@H]4CCc5cc(O)ccc5[C@H]4CC[C@]23C)=C1 [Example E2-CDS, 3-Hydroxy-17β-[(1-methyl-1,4-dihydropyridin-3-yl)carbonyl]oxyestra-1,3,5(10)-triene]?
**A.** increase in incorporation with the lower ASDS material (physchem): 15%; increase in solubility over the solubility in water (physchem): 150,000 fold; slope of millimolarity of E2-CDS solubilized versus millimolarity of HPCD added (estimation of bulk stability of the complex) (physchem): 0.2; solubility (physchem; 10 mm aqueous β-cyclodextrin, Maximum Solubility): 27 µg/mL (≈ 0.0686 mM); solubility (physchem; 10 mm aqueous γ-cyclodextrin, Maximum Solubility): 22 µg/mL (≈ 0.0559 mM); solubility (physchem; 50 mm aqueous α-cyclodextrin, Maximum Solubility): 5 µg/mL (≈ 0.0127 mM); solubility (physchem; 62.5% w/v aqueous hpcd, Maximum Solubility): 30200 µg/mL (≈ 76.7 mM); solubility (physchem; water, Maximum Solubility (solubility of E2-CDS in water)): 0.2 µg/mL (≈ 0.000508 mM); solubility (physchem; water, water solubility): 0.2 µg/mL (≈ 0.000508 mM); stability of the solid complex [1]: stable as a dry powder; degree of complexation ([1]; 50% (w/w) HPCD, freeze-dried): 20 to 40 mg/g; upper limit for a stable complex ([1]; HPCD complex): approximately 40 mg/g; degree of incorporation ([1]; addition of Brij (0.7% w/w)): 189 mg/g; degree of incorporation after storage ([1]; addition of Brij (0.7% w/w), in 12 days): 42 mg/g; effect on degree of incorporation ([1]; addition of Tween 80 (0.8% w/w) or ethanol (10% v/v)): only modest effects; Amount of Drug in Dry Complex ([1]; freeze-dried complex from 50% w/w HPCD (ASDS 5.1)): 37 mg/g; solubility ([2]; 20% hebcd): 3090 µg/mL (≈ 7.85 mM); solubility ([2]; 20% hpcd): 6730 µg/mL (≈ 17.1 mM); solubility ([2]; 40% hebcd): 6070 µg/mL (≈ 15.4 mM); solubility ([2]; 40% hpcd): 11900 µg/mL (≈ 30.2 mM); solubility ([2]; 40% hpgcd): 4000 µg/mL (≈ 10.2 mM); initial lung concentrations of E2-CDS, corrected for dose [3, 5]: more than ten-fold; initial lung concentrations of E2-Quat, corrected for dose [3, 5]: more than ten-fold; brain levels of E2-Quat, corrected for dose ([3]; after 1 hour, HPCD complex in water compared to DMSO): not significantly different; inhibition of second order rate of oxidation ([4]; 0.5% w/v cyclodextrin): 42%; inhibition of second order rate of oxidation ([4]; 1.0% w/v cyclodextrin): 60%; inhibition of second order rate of oxidation ([4]; 2% cyclodextrin): 81%; reduction in the second order rate of oxidation ([4]; 5-20% cyclodextrin): approximately 90%

Reference: patent EP0335545B2, “Pharmaceutical formulations for parenteral use” (UNIVERSITY OF FLORIDA, priority 1988, dated 1989)
